From patent US20040167170A1, “Methods of preventing breast cancer” (priority 1996, published 2004)

Experiments:
Format in all cases: in vivo, human
[1] = system: breast cancer in postmenopausal women; assay: Phase III double-blind placebo-controlled raloxifene trials, all placebo-controlled studies combined: incidence of breast cancer; conditions: for Relative Risk (Raloxifene to Placebo) of breast cancer / Raloxifene Cases n/N (%): all raloxifene doses pooled; for Raloxifene Cases n/N (%): N estimated
Source text: (§1) As support for the utility of the current invention, the interim safety results of Phase III clinical trials with raloxifene are presented, below.
(§2) The majority of cases of breast carcinoma have occurred in the large, ongoing osteoporosis treatment study of 7704 postmenopausal women with established osteoporosis. However additional cases have been reported in smaller studies of postmenopausal women at risk for osteoporosis. The studies reported herein are double-blind and placebo-controlled; most have durations of approximately three years and were designed to determine the efficacy of raloxifene to prevent or treat osteoporosis in postmenopausal women. In addition, the studies provide information on the status of cardiovascular health and other major medical conditions (including the incidence of breast carcinoma). Patients were randomly assigned to receive either placebo, 30 mg, 60 mg, 120 mg or 150 mg of drug per day, orally. All patients and investigators are blinded to study drug assignment (double-blind design). All patients in all groups received daily calcium supplements of approximately 500 mg/day. In addition, patients in the large, 7704-patient treatment study received Vitamin D supplements, 400-600 IU/day.
(§3) Subjects selected for these studies are postmenopausal women (at least 2 years from the time of the last menstrual period), ages range from approximately forty-five to eighty years.
(§4) Typical exclusion criteria from participation in these studies included: l)the presence of serious systemic disease, 2)acute or chronic liver disease, 3)substantially impaired kidney function, 4)subjects who, in the opinion of the investigator, have poor medical or psychiatric risk factors for inclusion in a clinical trial, e.g., drug or alcohol abuse, etc. 5)subjects with any history of cancer within five years of entry into the study, with the exception of superficial lesions, e.g., basal cell carcinoma of the skin 6)the presence of abnormal uterine bleeding. Most important of the exclusion criteria was the exclusion of women with present or past personal history of breast cancer or other estrogen-dependent neoplasia. These exclusion criteria generate a population of subjects which reflects the general population in regard to the risk of developing breast carcinoma, or in other words, those persons at no particular increased risk of developing breast cancer.
(§5) Potential subjects were screened prior to enrollment into the study. Subjects were required to reveal their medical histories and current medical conditions. All potential patients were required either to have a baseline mammogram or ultrasound evaluation of the breast, or to have had one of these procedures in the 12-month period preceding study entry. In most studies, a two-year follow-up mammogram is required; however, annual mammograms are recommended. All subjects with diagnosed and reported carcinomas of the breast were required to discontinue immediately from study participation, and were referred by the site investigator for appropriate oncologic evaluation and care.
The overall ratio of treatment assignments for randomized patients (raloxifene to placebo) is approximately 2:1.
(§6) The results shown in Tables 1-4 are for subjects with histopathologic diagnoses of carcinoma of the breast. The data include results from optional one year mammograms, as well as the required baseline and two year follow-up mammograms. Once a diagnosis of breast cancer was made, these subjects were discontinued from the study and their status decoded to reveal the therapy (arm) to which they been assigned (i.e. what study drug they had received).
(§7) For the studies reported in this invention, the number of patients randomly assigned to receive placebo is approximately 3195. The number of patients randomly assigned to receive raloxifene (all doses combined) is approximately 6681. […] Table 1 presents the results for all placebo-controlled studies, with data for all doses of raloxifene pooled. […]

[2] = system: breast cancer in postmenopausal women with established osteoporosis; assay: Large (7704-patient) osteoporosis treatment study of postmenopausal women with established osteoporosis: incidence of breast cancer; conditions: for Relative Risk (Raloxifene to Placebo) of breast cancer / Raloxifene Cases n/N (%): 60 and 120 mg/day; for Raloxifene Cases n/N (%): N estimated
Source text: as §1, §2, §3, §4, §5, §6, §7

postmenopausal women = assay: Integrated safety analysis of Phase III clinical trials of raloxifene for prevention or treatment of osteoporosis; conditions: all doses integrated; more than 12,850 patient-years of exposure; nearly 3 years of clinical experience
Source text: Because the goal of disease prevention is to protect women from the carcinogenic event (or the occurrence of precancerous lesions) and the subsequent promotion or progression to invasive disease (cancer), prolonged use of a preventive therapeutic agent is necessary (Kelloff et.al. Approaches to the Development and Marketing Approval of Drugs that Prevent Cancer, Cancer Epidemiology, Biomarkers & Prevention, vol 4, pp.1-10, 1995). […] Raloxifene has been studied in more than 12,000 subjects. Extensive integrated data from Phase III clinical trials of raloxifene for the prevention or treatment of osteoporosis in postmenopausal women, has been analyzed for safety. When all doses of raloxifene are integrated, this analysis has included more than 12,850 patient-years of exposure to raloxifene.

[3] = 1-Year Follow-up mammograms (6-18 months)
[4] = 2-year Follow-up mammograms (18-30 months)
[5] = Baseline mammograms (1-6 months)
[6] = diagnosis at least 1 month after therapy assignment
[7] = diagnosis at least 12 months after therapy assignment
[8] = vs placebo, cases at least 12 months after randomization
[9] = vs placebo, diagnosed at least one month after random assignment

## O=C(c1ccc(OCCN2CCCCC2)cc1)c1c(-c2ccc(O)cc2)sc2cc(O)ccc12 [Raloxifene]
[1]; [3]
  Raloxifene Cases: 7
  Relative Risk of breast cancer: 0.56
[1]; [4]
  Raloxifene Cases: 5
  Relative Risk of breast cancer: 0.15
[1]; [5]
  Raloxifene Cases: 5
  Relative Risk of breast cancer: 1.20
[1]; [6]
  Relative Risk (Raloxifene to Placebo) of breast cancer: 0.36
  Raloxifene Cases n/N (%): 18/6681
[1]; [7]
  Relative Risk (Raloxifene to Placebo) of breast cancer: 0.23
  Raloxifene Cases n/N (%): 10/6681
[1]; placebo-controlled trials of at least 6 months duration, more than 1-month of treatment, raloxifene to placebo approximately 2:1
  breast cancer cases reported in the raloxifene treatment groups: 18 cases
[1]; [8]
  decrease in the incidence of breast cancer: 77%
[1]; [9]
  decrease in the rate of breast cancer: 64%
[2]; [3]
  Raloxifene Cases: 4
  Relative Risk of breast cancer: 0.33
[2]; [4]
  Raloxifene Cases: 3
  Relative Risk of breast cancer: 0.12
[2]; [5]
  Raloxifene Cases: 5
  Relative Risk of breast cancer: 1.25
[2]; [6]
  Relative Risk (Raloxifene to Placebo) of breast cancer: 0.29
  Raloxifene Cases n/N (%): 12/5317
[2]; [7]
  Relative Risk (Raloxifene to Placebo) of breast cancer: 0.14
  Raloxifene Cases n/N (%): 5/5317
[2]; [8]
  decrease in the incidence of breast carcinoma: 86%
[2]; [9]
  decrease in the rate of breast cancer: 71%
Postmenopausal women
  tolerability / safety: extremely well-tolerated
